These results are taken from patent publication US20100119595A1, “Monounsaturated fatty acids and perhydrocyclopentanophenanthrene nucleus combination molecules, and their precursors, and the use of all of these as weight-loss agents” (priority 2001, published 2010).

A short description of assay [1]: Rabbit study at mole/kg dose equivalent to that used for oleoyl-estrone in rats. It is filed as in vivo, rabbits. The text has this:
The eicosenoic acid-estrogen monoesters mimic the function of the naturally occurring fatty acid monoester, estrone monooleate, as a signal that informs the brain of the size of fat tissue mass. When administered to rabbits, they produce weight reduction of about 20%, by a) decreasing food intake and b) by a new and unexpected mechanism. Eicosenoic acid-estrogen monoesters are useful for the treatment of obesity and/or overweight in mammals, with the advantages of high efficacy and low toxicity.

The test system of assay [2] is MCF-7 human breast cancer cell line. Nature of the assay: MCF-7 human breast cancer cell line test. The note with it: MCF-7 human breast cancer cells. It counts as cell-based. An excerpt: The practical use of any compound given to humans for the treatment of obesity require, of course, that the compound not only be effective, but able to pass the FDA requirements and be approved as a drug suitable for humans. […] One test used to determine reactivity with human breast cancer cells is the “MCF-7 human breast cancer cell line test”. The lower the concentration of drug required to produce agonist activity, the more potential there is for problems with cancer causing &/or promotion in humans A comfortable level in the pharmaceutical industry would be a reactivity in the micromolar range. In the case of oleyl estrone, agonist activity begins at […]; with estrone eicosenoate, agonist activity begins at a ten times greater concentration of 1.0 nanomolar. This low concentration of agonist activity mitigates the possibility that these compounds would gain FDA approval for either drug.

A short description of assay [3]: Dog weight-loss study, estrone eicosenoate vs oleoyl-estrone (Example 2). It is filed as in vivo. The note with it: oral 21 days, 5, 3.33 or 2.5 micromoles/kg vs OE 10 micromoles/kg. The text has this:
Dogs are selected and initial measurements taken. The initial measurements include weight and electrical impedance for each dog as measured by a standard impedance measuring device with electrodes placed between the front and rear paws. The dogs are placed individually in appropriate cages and allowed an ad libitum diet of standard dog chow and water for a 10-day period. Daily measurements include the following: • 1. Weight • 2. Weight of food consumed • 3. Water consumed, both volume and weight Every other day, the dogs' electrical impedance is measured as an indicator of fat tissue content and loss. The dogs remain confined with out of cage activity or exercise for the duration of the experiment. This initial 10-day period establishes a pattern and average of weight gain, impedance change, and food and water consumption for each dog. […] This assures the dogs will readily accept the bread ball as a drug delivery device. […] An appropriate volume of either OE or EE is placed into the center of a thick piece of dense sweet bread (non-porous), carefully rolled into a small ball so none of the to compound leaks out, and sprinkled on the outer surface with sugar or syrup as determined above. […] Electrical impedance of each dog is measured every other day.

On to `CCCCCCCC/C=C\CCCCCCCCCC(=O)Oc1ccc2c(c1)CC[C@@H]1[C@@H]2CC[C@]2(C)C(=O)CC[C@@H]12` [EE, estrone eicosenoate], for which, in assay [1], the “greater reduction in appetite in rabbits than oleoyl-estrone did in rats” value is 50% and the “greater weight loss in rabbits than oleoyl-estrone did in rats” value stood at 60%. Also, the “concentration at which agonist activity begins” value in assay [2] came to 1.0 nM. In addition, the “weight loss compared with dogs receiving oleoyl-estrone” value in assay [3] is recorded as “greater weight loss”.
